Source: patent publication US8846645B2, “Cyclohexane compounds and their use as antibiotics” (Rheinische Friedrich-Wilhelms Universität Bonn, priority 2010, dated 2014)

Legend:
[1] = test system: glmS riboswitch of Staphylococcus aureus MU50; experiment: metabolite-induced self-cleavage assay of the glmS riboswitch; type: biochemical
Protocol: The determination was performed using an in vitro preparation of the glmS riboswitch of Staphylococcus aureus MU50.
The glmS riboswitch DNA was amplified from genomic DNA of the S. aureus Mu50 strain (RKI Berlin) by standard Pfu polymerase chain reaction (PCR) using a 5′ primer containing the T7 promoter (GATAATACGACTCACTATAGGGCAGTTAAAGCGCCTGTGCAAATA, SEQ ID NO: 1) and a 3′ primer (ATCTTATTAACTTTGTCCATTAAGTCACCC, SEQ ID NO: 2) (20 cycles, annealing temperature of 60° C., homemade Pfu enzyme). The resultant of a 100 μl PCR reaction was phenol/chloroform extracted and precipitated using 3M NaOAc pH 5.4 and ethanol Pellets were resuspended in 10 μl diethylpyrocarbonate treated water (DEPC H2O) and used as template for T7 RNA polymerase-based transcription. […]
For this assay the following components were mixed to yield the stated final concentrations: cleavage buffer (50 mM Hepes pH 7.5, 200 mM KCl), MgCl2 (10 mM), glucosamine-6-phosphate (200 μM), glucosamine (GlcN) (200 μM), the compound according to formula (I) (200 μM) or the compound according to formula (3) (200 μM and 20 mM), radioactively labelled RNA (20 cps) and DEPC H2O ad 10 μl. […] The screens were read using a FujiFilm PhosphorImager FLA 3000 and evaluated using AIDA software.

[2] = test system: Staphylococcus aureus SG511; experiment: determination of the minimal inhibitory concentration in Staphylococcus aureus SG511; type: cell-based; details: 0.5× Mueller-Hinton media, 18-24 h, OD 600 nm; FIG. 3
Protocol: The determination of the minimal inhibitory concentration (MIC) of the compounds according to formula (I) (carba-GlcN6P) and formula (3) (carba-GlcN) was performed in clear, round bottom 96-well plates. For this 100 μl of 0.5× Mueller-Hinton media (Oxoid, 300 gm/litre dehydrated infusion from beef, 17.5 gm/litre casein hydrolysate, 1.5 gm/litre starch, pH 7.3) were put into the 12 wells. To the first well 100 μl of 320 mM solution of carba-GlcN were added, mixed by pipetting and 100 μl of this mixture were transferred into the next well etc., generating a sequence final dilutions from 160 mM to 0.08 mM. Finally, SG511 cells that had been grown to an optical density (OD600) of 1 were diluted in 0.5× Mueller-Hinton media 1:10 000. From this dilution 100 μl were added to the already prepared plate leading to a final compound concentration of 80 mM-0.04 mM. After incubation for 10 min at RT and vivid shaking, the 96-well plate was transferred to a 37° C. incubator. After 18-24 h of incubation the plate was read at 600 nm using a standard plate reader.

[3] = test system: Staphylococcus aureus Mu50 cells; experiment: growth inhibition in vancomycin intermediate resistant Staphylococcus aureus Mu50 in sugar free medium; type: cell-based
Protocol: For the preparation of 2× chemically defined medium (2×CDM), a minimal medium for Staphylococcus aureus without glucose, for the preparation of 500 ml the following components were mixed in individual groups before being combined:
After preparation of the individual groups, the groups I-IV were added to group V. The volume was adjusted to 480 ml with ddH2O. The pH was adjusted to 7 using HCl followed by adjusting the volume to the final 500 ml. Before storage at 4° C. the medium was sterile filtered.
The determination of the decrease in bacterial growth of Staphylococcus aureus Mu50 cells (RKI Berlin) depending on the concentration of the compound according to formula (3) (C GlcN) was performed in clear, sterile, round bottom 96-well plates with lid. Before treatment, the cells were grown in 2×CDM medium without glucose at 37° C. for 24 h under vigorous shaking.
For the determination of the growth inhibition 100 μl of 2×CDM were put into each of 12 wells. […] The 96 well plate was incubated at 37° C. in a Tecan Sunrise plate reader, which tracks the optical density (OD600) in 10 minute intervals and automatically shakes the plate for one minute every two minutes. Minimal inhibitory concentration was read after 18 h to 24 h of incubation. […]

[4] = test system: Staphylococcus aureus Mu50 cells; experiment: synergistic effects with vancomycin treatment of S. aureus Mu50; type: cell-based; details: 0.0025 mM alone
Protocol: Before treatment, Staphylococcus aureus Mu50 cells (RKI Berlin) were grown in sterile, 15 ml flasks containing 5 ml of 2×CDM without glucose at 37° C. for 24 h under vigorous shaking.
For the determination of the growth inhibition 100 μl of 2×CDM containing 10 μM vancomycin were put into each of 12 wells. […] Finally, Mu50 cells that had been grown to an optical density (OD600) of 0.8 to 1 were diluted in 2×CDM to an optical density (OD600) of 0.2. From this dilution 100 μl were added to the already prepared plate leading to a final compound concentration of 80 mM, 40 mM, 20 mM, 10 mM, 5 mM, and 2.5 mM, a final concentration of 2.5 μM vancomycin and a final OD600 of 0.1 per well at the beginning of the measurement. The 96 well plate was incubated at 37° C. in a Tecan Sunrise plate reader, which tracks the optical density (OD600) in 10 minute intervals and automatically shakes the plate for one minute every two minutes. Minimal inhibitory concentration was read after 18 h to 24 h of incubation. Control cells were treated without compounds or with 2.5 μM vancomycin.

N[C@H]1C(O)O[C@H](COP(=O)(O)O)[C@@H](O)[C@@H]1O (stereo partly shown) [GlcN6P, glucosamine-6-phosphate, reference compound]
EC50 ([1]; concentration dependent analysis, 37° C., 30 min): 3.61 ± 0.39 µM

N[C@@H]1[C@@H](O)[C@H](O)[C@@H](COP(=O)(O)O)C[C@@H]1O [formula (1), (1S,2S,3R,4R,5R)-2-amino-5-((phosphonooxy)methyl)-cyclohexane-1,3,4-triol]
activation of the glmS-riboswitch compared with the native metabolite ([1]; versus GlcN6P): almost the same potency
bacterial growth of Staphylococcus aureus [2]: effectively inhibit the growth

NC1C(O)CC(CO)C(O)C1O (stereo not shown) [formula (3), Carba-glucosamine]
MIC ([3]; Staphylococcus aureus, MU50CELLS, 2×CDM without glucose, read after 18 h to 24 h, n=3, read-out: minimal inhibitory concentration (MIC)): 625 µM
concentration at which measureable growth inhibition started ([3]; sugar free medium, referring to control cells grown without compounds, FIG. 4): 0.156 mM

CN[C@H](CC(C)C)C(=O)N[C@H]1C(=O)N[C@@H](CC(N)=O)C(=O)N[C@H]2C(=O)N[C@H]3C(=O)N[C@H](C(=O)N[C@H](C(=O)O)c4cc(O)cc(O)c4-c4cc3ccc4O)[C@H](O)c3ccc(c(Cl)c3)Oc3cc2cc(c3O[C@@H]2O[C@H](CO)[C@@H](O)[C@H](O)[C@H]2O[C@H]2C[C@](C)(N)[C@H](O)[C@H](C)O2)Oc2ccc(cc2Cl)[C@H]1O [vancomycin]
bacterial growth (OD600) compared to untreated cells ([4]; after 10 h, FIG. 5): no change in the bacterial growth
bacterial growth (OD600) compared to untreated cells ([4]; over 18 h of incubation, FIG. 6): no change in the bacterial growth
